Experimental data from the supplement of paper PMC13380429.

Experiments:
[1] = system: A549-ACE2 infected with SARS-CoV-2; test: cell count relative to DMSO; higher = less toxic; details: 24 h
A549-ACE2 [2] = test: drug-induced phospholipidosis relative to tamoxifen; higher = more phospholipidosis
HepG2 [3] = test: cell viability relative to DMSO; higher = less toxic; details: 72 h
Vero E6 [4] = test: as above; details: 72 h
Calu-3 [5] = test: as above; details: 72 h
U2OS [6] = test: as above; details: 72 h
Caco-2 [7] = test: as above; details: 72 h
[8] = system: A549-ACE2 infected with SARS-CoV-2; test: SARS-CoV-2 infection rate relative to DMSO; higher = more infection; details: 24 h
[9] = system: A549-ACE2 infected with SARS-CoV-2; test: morphology score (similarity to uninfected cells); higher = more like uninfected cells; details: 24 h
HepG2 [10] = test: drug sensitivity score (DSS) for viability; higher = more toxic; extreme values may be limits of the assay; details: 72 h
Vero E6 [11] = test: as above; details: 72 h
Calu-3 [12] = test: as above; details: 72 h
U2OS [13] = test: as above; details: 72 h
Caco-2 [14] = test: as above; details: 72 h
HepG2 [15] = test: relative viability EC50 (midpoint between 100% and the lowest measured viability); higher = less toxic; details: 72 h
U2OS [16] = test: as above; details: 72 h
A549-ACE2 [17] = test: phospholipidosis EC50; higher = less potent phospholipidosis inducer
Vero E6 [18] = test: relative viability EC50 (midpoint between 100% and the lowest measured viability); higher = less toxic; details: 72 h
Calu-3 [19] = test: as above; details: 72 h
Caco-2 [20] = test: as above; details: 72 h

Cn1cc(-c2ccc3c(c2)CCN3C(=O)Cc2cccc(C(F)(F)F)c2)c2c(N)ncnc21
Details | SARS-CoV-2 infection rate, [8] [%] | cell count, [1] [%] | cell viability, Caco-2 [7] [%] | cell viability, Calu-3 [5] [%] | cell viability, HepG2 [3] [%] | cell viability, U2OS [6] [%] | cell viability, Vero E6 [4] [%] | morphology score, [9]
1 nM | – | – | 100 | 106 | 87.4 | 103 | 95.3 | –
10 nM | – | – | 86.6 | 94 | 98.3 | 97.4 | 94 | –
0.1 µM | 102 | 97 | – | – | – | – | – | 0.02
100 nM | – | – | 66.9 | 96 | 84 | 102 | 96.6 | –
0.3 µM | 96 | 104 | – | – | – | – | – | 0.18
1 µM | 102 | 105 | – | – | – | – | – | 0.12
1000 nM | – | – | 103 | 92.5 | 101 | 95.2 | 107 | –
3 µM | 87 | 112 | – | – | – | – | – | 0.4
10000 nM | – | – | 61.6 | 68.9 | 48.6 | 77.3 | 67.1 | –

drug-induced phospholipidosis [%], A549-ACE2 [2]
Details | 0.3 µM | 0.833333 µM | 3.33333 µM | 6.66667 µM | 10 µM | 30 µM
24 h | 1.57 | 0.73 | 1.92 | 3.67 | 12.1 | 28.6
48 h | 3.63 | 1.52 | 3.02 | 3.48 | 8.65 | 18.6
72 h | 2.2 | 0.314 | 1.31 | 3.34 | 7.89 | 22.2

Details | drug sensitivity score | relative viability EC50 [µM]
Caco-2 [14] | 4.7 | –
Calu-3 [12] | 2.4 | –
HepG2 [10] | 2.6 | –
HepG2 [15] | – | 3.28
U2OS [13] | 1.5 | –
U2OS [16] | – | > 10
Vero E6 [11] | 1.2 | –

CN1CCC[C@@H](CC2c3ccccc3Sc3ccccc32)C1 (racemic) [metixene]
Details | SARS-CoV-2 infection rate [%] | cell count [%] | cell viability [%] | morphology score | phospholipidosis EC50 [µM]
A549-ACE2 [17], 24 h | – | – | – | – | 5.44
A549-ACE2 [17], 48 h | – | – | – | – | 9.46
A549-ACE2 [17], 72 h | – | – | – | – | 4.98
Caco-2 [7], 1 nM | – | – | 85.9 | – | –
Caco-2 [7], 10 nM | – | – | 94.5 | – | –
Caco-2 [7], 100 nM | – | – | 94.7 | – | –
Caco-2 [7], 1000 nM | – | – | 120 | – | –
Caco-2 [7], 10000 nM | – | – | 71.9 | – | –
Calu-3 [5], 1 nM | – | – | 102 | – | –
Calu-3 [5], 10 nM | – | – | 100 | – | –
Calu-3 [5], 100 nM | – | – | 100 | – | –
Calu-3 [5], 1000 nM | – | – | 100 | – | –
Calu-3 [5], 10000 nM | – | – | 73.1 | – | –
HepG2 [3], 1 nM | – | – | 104 | – | –
HepG2 [3], 10 nM | – | – | 104 | – | –
HepG2 [3], 100 nM | – | – | 105 | – | –
HepG2 [3], 1000 nM | – | – | 101 | – | –
HepG2 [3], 10000 nM | – | – | 72.3 | – | –
U2OS [6], 1 nM | – | – | 105 | – | –
U2OS [6], 10 nM | – | – | 95.3 | – | –
U2OS [6], 100 nM | – | – | 99.4 | – | –
U2OS [6], 1000 nM | – | – | 93.2 | – | –
U2OS [6], 10000 nM | – | – | 89.8 | – | –
Vero E6 [4], 1 nM | – | – | 96.6 | – | –
Vero E6 [4], 10 nM | – | – | 109 | – | –
Vero E6 [4], 100 nM | – | – | 105 | – | –
Vero E6 [4], 1000 nM | – | – | 101 | – | –
Vero E6 [4], 10000 nM | – | – | 74 | – | –
[1], 0.1 µM | – | 106 | – | – | –
[1], 0.3 µM | – | 99 | – | – | –
[1], 1 µM | – | 110 | – | – | –
[1], 3 µM | – | 129 | – | – | –
[8], 0.1 µM | 94 | – | – | – | –
[8], 0.3 µM | 103 | – | – | – | –
[8], 1 µM | 65 | – | – | – | –
[8], 3 µM | 30 | – | – | – | –
[9], 0.1 µM | – | – | – | 0.09 | –
[9], 0.3 µM | – | – | – | -0.03 | –
[9], 1 µM | – | – | – | 0.65 | –
[9], 3 µM | – | – | – | 0.88 | –

drug-induced phospholipidosis [%], A549-ACE2 [2]
Details | 0.3 µM | 0.833333 µM | 3.33333 µM | 6.66667 µM | 10 µM | 30 µM
24 h | 0.41 | 9.1 | 52.9 | 78.2 | 91.4 | 121
48 h | 4.61 | 5.46 | 39.9 | 75.4 | 93.7 | 145
72 h | 4.08 | 3.27 | 28.5 | 66.5 | 82.7 | –

Details | drug sensitivity score | relative viability EC50 [µM]
Caco-2 [14] | 0.6 | –
Calu-3 [12] | 1.1 | –
HepG2 [10] | 1.1 | –
U2OS [13] | 0 | –
U2OS [16] | – | > 10
Vero E6 [11] | 0.9 | –

NCCc1c[nH]c2ccc(C(N)=O)cc12 [5-carboxamidotryptamine]
Details | SARS-CoV-2 infection rate, [8] [%] | cell count, [1] [%] | cell viability, Caco-2 [7] [%] | cell viability, Calu-3 [5] [%] | cell viability, HepG2 [3] [%] | cell viability, U2OS [6] [%] | cell viability, Vero E6 [4] [%] | morphology score, [9]
1 nM | – | – | 97.8 | 93.2 | 105 | 101 | 98.8 | –
10 nM | – | – | 96.5 | 104 | 96.2 | 97.8 | 104 | –
100 nM | – | – | 102 | 96 | 95.2 | 99.1 | 103 | –
0.3 µM | 100 | 98 | – | – | – | – | – | -0.09
1000 nM | – | – | 102 | 104 | 102 | 98 | 97.4 | –
3 µM | 99 | 96 | – | – | – | – | – | -0.06
10 µM | 101 | 105 | – | – | – | – | – | -0.11
10000 nM | – | – | 98.7 | 102 | 98.9 | 99.5 | 97.2 | –
30 µM | 93 | 102 | – | – | – | – | – | 0.09

drug-induced phospholipidosis [%], A549-ACE2 [2]
Details | 0.3 µM | 0.833333 µM | 3.33333 µM | 6.66667 µM | 10 µM | 30 µM
24 h | 1.09 | -2.6 | -3.13 | -2 | -0.66 | 2.03
48 h | 2.16 | -0.39 | 0.18 | -1.08 | -0.13 | 2.67
72 h | 3.22 | -1.61 | -0.768 | -1.96 | 0.562 | 3.08

Details | drug sensitivity score | relative viability EC50 [µM]
Caco-2 [14] | 0 | –
Caco-2 [20] | – | > 10
Calu-3 [12] | 0 | –
Calu-3 [19] | – | > 10
HepG2 [10] | 0 | –
HepG2 [15] | – | > 10
U2OS [13] | 0 | –
U2OS [16] | – | > 10
Vero E6 [11] | 0 | –
Vero E6 [18] | – | > 10

CCN(CC)CCCCN1c2ccccc2Oc2ccc(Cl)cc21 [10-DEBC]
Details | SARS-CoV-2 infection rate [%] | cell count [%] | cell viability [%] | morphology score | phospholipidosis EC50 [µM]
A549-ACE2 [17], 24 h | – | – | – | – | 3.06
A549-ACE2 [17], 48 h | – | – | – | – | 3.97
A549-ACE2 [17], 72 h | – | – | – | – | 4.34
Caco-2 [7], 1 nM | – | – | 93.2 | – | –
Caco-2 [7], 10 nM | – | – | 99.6 | – | –
Caco-2 [7], 100 nM | – | – | 100 | – | –
Caco-2 [7], 1000 nM | – | – | 102 | – | –
Caco-2 [7], 10000 nM | – | – | 66.1 | – | –
Calu-3 [5], 1 nM | – | – | 112 | – | –
Calu-3 [5], 10 nM | – | – | 105 | – | –
Calu-3 [5], 100 nM | – | – | 110 | – | –
Calu-3 [5], 1000 nM | – | – | 103 | – | –
Calu-3 [5], 10000 nM | – | – | 39 | – | –
HepG2 [3], 1 nM | – | – | 90.3 | – | –
HepG2 [3], 10 nM | – | – | 103 | – | –
HepG2 [3], 100 nM | – | – | 87.4 | – | –
HepG2 [3], 1000 nM | – | – | 88.7 | – | –
HepG2 [3], 10000 nM | – | – | 45.3 | – | –
U2OS [6], 1 nM | – | – | 100 | – | –
U2OS [6], 10 nM | – | – | 96.4 | – | –
U2OS [6], 100 nM | – | – | 94.7 | – | –
U2OS [6], 1000 nM | – | – | 93.3 | – | –
U2OS [6], 10000 nM | – | – | 80.1 | – | –
Vero E6 [4], 1 nM | – | – | 99.5 | – | –
Vero E6 [4], 10 nM | – | – | 97.4 | – | –
Vero E6 [4], 100 nM | – | – | 93.7 | – | –
Vero E6 [4], 1000 nM | – | – | 92.6 | – | –
Vero E6 [4], 10000 nM | – | – | 63 | – | –
[1], 0.1 µM | – | 107 | – | – | –
[1], 0.3 µM | – | 103 | – | – | –
[1], 1 µM | – | 107 | – | – | –
[1], 3 µM | – | 127 | – | – | –
[8], 0.1 µM | 109 | – | – | – | –
[8], 0.3 µM | 87 | – | – | – | –
[8], 1 µM | 76 | – | – | – | –
[8], 3 µM | 55 | – | – | – | –
[9], 0.1 µM | – | – | – | -0.05 | –
[9], 0.3 µM | – | – | – | 0.39 | –
[9], 1 µM | – | – | – | 0.55 | –
[9], 3 µM | – | – | – | 0.9 | –

drug-induced phospholipidosis [%], A549-ACE2 [2]
Details | 0.3 µM | 0.833333 µM | 3.33333 µM | 6.66667 µM | 10 µM
24 h | 0.51 | 1.58 | 47.7 | 76.9 | 81.2
48 h | 1.97 | 2.56 | 41 | 88.5 | 101
72 h | 2.46 | 1.09 | 30.1 | 85.5 | 98.7

Details | drug sensitivity score | relative viability EC50 [µM]
Caco-2 [14] | 1.4 | –
Calu-3 [12] | 3.1 | –
Calu-3 [19] | – | 3.43
HepG2 [10] | 4.7 | –
HepG2 [15] | – | 1.76
U2OS [13] | 0.8 | –
U2OS [16] | – | > 10
Vero E6 [11] | 3 | –
